Experimental findings from ChEMBL document CHEMBL1155967, “Design, synthesis, and examination of neuron protective properties of alkenylated and amidated dehydro-silybin derivatives” (J Med Chem, 2009) are described below.

The nature of data set [1]: Iron chelating activity assessed as inhibition of ferrozine-Fe2+ complex formation at 150 uM after 10 mins by spectrophotometry. Format: functional.
Data set [2] is described as follows: Iron chelating activity assessed as inhibition of ferrozine-Fe2+ complex formation after 10 mins by spectrophotometry. Type of data set: functional.
A short description of data set [3]: Antioxidant activity assessed as superoxide anion scavenging activity at 50 uM after 5 mins by spectrophotometry. Type of data set: functional.
Data set [4] deals with Liver. The experiment in a line: Inhibition of lipid peroxidation in Sprague-Dawley rat liver homogenate assessed as malondialdehyde formation after 1 hr by TBARS assay. Format: functional, tissue-based.
Data set [5] relates to Radical scavenging activity. The experiment in a line: Antioxidant activity assessed as DPPH radical scavenging activity at 50 uM after 30 mins by spectrophotometry. Format: functional. On the technique in general: Loss of DPPH colour is used to gauge radical scavenging.
The subject of data set [6] is PC-12. The experiment in a line: Neuroprotective activity against H2O2-induced injury in rat PC12 cells at 12.5 to 50 uM treated 2 hrs before H2O2 challenge measured after 4 hrs by MTT assay. Format: functional, cell-based. (Tetrazolium dyes change colour on reduction, which living cells bring about.)
For data set [7], the target named is T1, Xanthine dehydrogenase/oxidase (Rattus norvegicus, UniProt P22985). The experiment in a line: Inhibition of rat liver xanthine oxidase at 75 uM after 2 hrs by spectrophotometry. Conditions: for inhibition (INH): 75 µM.
T1 sequence (P22985 whole entry): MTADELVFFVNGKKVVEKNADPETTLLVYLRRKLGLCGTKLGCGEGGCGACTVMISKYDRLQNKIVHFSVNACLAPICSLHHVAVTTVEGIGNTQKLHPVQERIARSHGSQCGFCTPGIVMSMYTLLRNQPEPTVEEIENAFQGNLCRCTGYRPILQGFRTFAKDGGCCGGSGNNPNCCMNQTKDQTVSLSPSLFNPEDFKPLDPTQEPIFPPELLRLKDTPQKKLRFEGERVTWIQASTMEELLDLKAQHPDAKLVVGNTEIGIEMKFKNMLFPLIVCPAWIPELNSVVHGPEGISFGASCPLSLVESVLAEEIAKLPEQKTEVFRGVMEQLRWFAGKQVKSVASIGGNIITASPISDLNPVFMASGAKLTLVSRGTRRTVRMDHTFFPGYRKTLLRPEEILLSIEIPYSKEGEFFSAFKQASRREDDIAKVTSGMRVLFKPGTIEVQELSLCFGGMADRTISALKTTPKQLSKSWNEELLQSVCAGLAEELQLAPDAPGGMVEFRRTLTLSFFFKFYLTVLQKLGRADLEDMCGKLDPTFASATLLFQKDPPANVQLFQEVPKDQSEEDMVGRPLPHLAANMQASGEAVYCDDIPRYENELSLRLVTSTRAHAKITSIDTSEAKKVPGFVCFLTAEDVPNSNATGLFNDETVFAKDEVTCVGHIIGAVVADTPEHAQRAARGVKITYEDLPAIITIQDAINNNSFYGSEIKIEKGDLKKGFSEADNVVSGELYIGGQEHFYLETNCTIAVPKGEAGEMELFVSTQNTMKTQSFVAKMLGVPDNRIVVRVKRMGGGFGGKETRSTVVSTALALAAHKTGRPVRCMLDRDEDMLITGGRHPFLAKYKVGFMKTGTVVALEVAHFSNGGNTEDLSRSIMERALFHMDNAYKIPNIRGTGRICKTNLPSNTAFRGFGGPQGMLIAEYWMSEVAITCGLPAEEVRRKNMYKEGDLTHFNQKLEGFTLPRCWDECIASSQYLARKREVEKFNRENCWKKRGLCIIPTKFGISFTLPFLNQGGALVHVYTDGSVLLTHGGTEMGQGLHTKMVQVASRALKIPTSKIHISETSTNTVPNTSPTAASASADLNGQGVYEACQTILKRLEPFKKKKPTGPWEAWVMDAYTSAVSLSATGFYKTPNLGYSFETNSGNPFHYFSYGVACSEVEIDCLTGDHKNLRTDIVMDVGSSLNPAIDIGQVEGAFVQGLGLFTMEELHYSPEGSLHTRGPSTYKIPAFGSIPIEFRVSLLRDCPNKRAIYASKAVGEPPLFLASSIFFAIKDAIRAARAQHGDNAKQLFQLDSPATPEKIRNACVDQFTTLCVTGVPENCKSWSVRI
For data set [8], the system named is PC-12. The experiment in a line: Neuroprotective activity against H2O2-induced injury in rat PC12 cells assessed as increase in cell viability at 50 uM treated 2 hrs before H2O2 challenge measured after 4 hrs by MTT assay. Format: functional.
In data set [9] the test system is PC-12. The experiment in a line: Neuroprotective activity against H2O2-induced injury in rat PC12 cells treated 2 hrs before H2O2 challenge measured after 4 hrs by MTT assay. Format: functional, cell-based.
Data set [10] deals with T1, Xanthine dehydrogenase/oxidase. The experiment in a line: Inhibition of rat liver xanthine oxidase after 2 hrs by spectrophotometry.
Data set [11] concerns Radical scavenging activity. The experiment in a line: Antioxidant activity assessed as DPPH radical scavenging activity after 30 mins by spectrophotometry. Format: functional.
The nature of data set [12]: Antioxidant activity assessed as superoxide anion scavenging activity after 5 mins by spectrophotometry. Type of data set: functional.
The nature of data set [13]: Ratio of quercetin EC50 to compound EC50 for iron chelating activity.
In data set [14] the test system is Liver. The experiment in a line: Ratio of silybin IC50 to compound IC50 for inhibition of lipid peroxidation in Sprague-Dawley rat liver homogenate. Format: functional, tissue-based.
Data set [15] relates to Liver. The experiment in a line: Ratio of 2,3-dehydrosilybin IC50 to compound IC50 for inhibition of lipid peroxidation in Sprague-Dawley rat liver homogenate. Type of data set: functional, tissue-based.
In data set [16] the test system is Liver. The experiment in a line: Ratio of quercetin IC50 to compound IC50 for inhibition of lipid peroxidation in Sprague-Dawley rat liver homogenate. Format: functional, tissue-based.
Data set [17] can be described thus: Ratio of 2,3-dehydrosilybin EC50 to compound EC50 for iron chelating activity. Type of data set: functional.

Usually inhibition stands for the change of the read-out against control, counted positive when it falls. One may read the EC50 as the concentration at which the effect is half-maximal. For orientation: IC50 means the concentration that gives 50% inhibition.

The source made the active and inactive calls. The calls are words filed in the database; no cut-off is given here. Bounds are passed on as bounds.

Turning to `O=C([O-])CN(CCN(CC(=O)[O-])CC(=O)O)CC(=O)O.[Na+].[Na+]` [EDETATE DISODIUM ANHYDROUS], the inhibition in data set [1] turned out to be 91.5%. In addition, the concentration giving a half-maximal response (EC50) in data set [2] was 16.4 µM.

Consider `C=CCOc1cc(O)c2c(=O)c(OCC=C)c(-c3ccc4c(c3)OC(c3ccc(OCC=C)c(OC)c3)C(CO)O4)oc2c1` (racemic), for which the result in [3] was inactive. For the same molecule, the IC50 in the data set on Liver [4] is 54.8 µM.

As to `COc1ccc(C(=O)OCC2Oc3ccc(-c4oc5cc(O)cc(O)c5c(=O)c4O)cc3OC2c2ccc(O)c(OC)c2)cc1` (racemic), the result in data set [3] was inactive. The IC50 in the data set on Liver [4] was 104 µM.

`O=C1O[C@H]([C@@H](O)CO)C(O)=C1O`: the inhibition in data set [5] is 12.6%.

Regarding `COc1cc(C2Oc3cc(-c4oc5cc(OCC(=O)Nc6ccc(C)cc6)cc(O)c5c(=O)c4O)ccc3OC2CO)ccc1OCC(=O)Nc1ccc(C)cc1` (racemic), in [3], the outcome was inactive. The IC50 with Liver [4] was determined as 74.1 µM. Also, the result with PC-12 [6] was Active. Moreover, in [7], the “inhibition (INH)” value is “Active”.

Turning to `COc1cc(C2Oc3cc(-c4oc5cc(OCC=C(C)C)cc(O)c5c(=O)c4O)ccc3OC2CO)ccc1OCC=C(C)C` (racemic), the result in data set [3] was inactive. Besides, in the data set on Liver [4], the concentration for half-maximal inhibition (IC50) came out at 28.1 µM. In addition, the half-maximal effective concentration (EC50) in data set [2] is 138 µM; in the data set on PC-12 [9] it was 47.4 µM. Further, the Activity in the data set with PC-12 [8] is 40%. Further, the inhibition at 75 µM in data set [7] amounted to 18.9%.

`COc1cc(C2Oc3cc([C@H]4Oc5cc(O)cc(O)c5C(=O)[C@@H]4O)ccc3OC2CO)ccc1O` (stereo partly specified) [SILIBININ]: the IC50 with Liver [4] turned out to be 84.8 µM; in [10] it was 80.3 µM. The “inhibition (INH)” value in data set [7] is given as “Not Active”.

Take `COc1cc(C2Oc3cc(-c4oc5cc(O)cc(O)c5c(=O)c4O)ccc3OC2COC(=O)c2cccc(Cl)c2)ccc1O` (racemic): in data set [3], the result was inactive. Also, in the data set with Liver [4], the IC50 came out at 16.9 µM. Also, the Activity with PC-12 [8] was determined as 40%. This molecule also yielded an EC50 in the data set with PC-12 [9] of 46.5 µM.

Consider `CCN(CC)C(=O)COc1cc(O)c2c(=O)c(O)c(-c3ccc4c(c3)OC(c3ccc(O)c(OC)c3)C(CO)O4)oc2c1` (racemic), for which the inhibition in [5] was 46.4%; in [1] it was 52.5%. Further, the result in data set [3] was Active. In the data set on Liver [4], the IC50 stood at 0.7 µM. In addition, the EC50 in [2] is 113 µM. Moreover, the “inhibition (INH)” value in data set [7] is on record as “Active”.

On to `CCOC(=O)COc1cc(O)c2c(=O)c(O)c(-c3ccc4c(c3)OC(c3ccc(OCC(=O)OCC)c(OC)c3)C(CO)O4)oc2c1` (racemic), for which the result in data set [3] was inactive. Besides, the figures for the IC50 (in the data set on Liver [4]; in [10]) were 36.4 µM and 70.8 µM, respectively. For the same molecule, in [1], the inhibition is 53.5%. Also, the EC50 in data set [2] came out at 116 µM. In data set [7], the inhibition at 75 µM was more than 50%.

Regarding `O=c1c(O)c(-c2ccc(O)c(O)c2)oc2cc(O)cc(O)c12` [QUERCETIN], the EC50 in [11] was found to be 3.4 µM; in data set [12] it was 38.6 µM; in data set [2], 188 µM; in the data set with PC-12 [9], 58.4 µM. The IC50 in the data set on Liver [4] was 4.6 µM. Besides, the inhibition in [1] was determined as 43.5%.

As for `C=CCCOc1cc(O)c2c(=O)c(O)c(-c3ccc4c(c3)OC(c3ccc(OCCC=C)c(OC)c3)C(CO)O4)oc2c1` (racemic), the result in data set [3] was inactive. Further, the IC50 in the data set on Liver [4] came to 36.2 µM. The EC50 amounted to 145 µM in [2] and 37.7 µM in the data set with PC-12 [9]. Also, the Activity in the data set on PC-12 [8] is 40%.

Take `COc1cc(C2Oc3cc(-c4oc5cc(OCC(=O)N6CCCC6)cc(O)c5c(=O)c4O)ccc3OC2CO)ccc1OCC(=O)N1CCCC1` (racemic): the Ratio EC50 was 7 in [13] and 4 in data set [17]. Further, the inhibition in [5] was determined as 44.2%; in [1], 87%. Further, the outcome in data set [3] was inactive. In addition, in the data set on Liver [4], the IC50 is 0.9 µM. Also, the Ratio IC50 in the data set with Liver [14] was found to be 93; in the data set on Liver [15] it was 11; with Liver [16], 5. The EC50 in data set [2] worked out at 23.2 µM. Further, the result with PC-12 [6] was Active. For the same molecule, the “inhibition (INH)” value in data set [7] is “Active”.

In the case of `COc1cc(C2Oc3cc(-c4oc5cc(OCC=C(C)C)cc(O)c5c(=O)c4O)ccc3OC2CO)ccc1O` (racemic), in data set [3], the result was Active. Besides, the IC50 in the data set on Liver [4] was 23.3 µM. Moreover, the inhibition in data set [1] was 51%. The results for the EC50 (in data set [2]; in the data set with PC-12 [9]) were 137 µM and 32 µM, respectively. The Activity in the data set with PC-12 [8] turned out to be 40%.

On to `CCN(CC)C(=O)COc1cc(O)c2c(=O)c(O)c(-c3ccc4c(c3)OC(c3ccc(OCC(=O)N(CC)CC)c(OC)c3)C(CO)O4)oc2c1` (racemic), for which the outcome in data set [3] was inactive. Moreover, in the data set on Liver [4], the IC50 amounted to 5.8 µM. For the same molecule, the inhibition in data set [1] was found to be 63%. Moreover, the concentration giving a half-maximal response (EC50) in data set [2] worked out at 59.9 µM. In addition, in the data set on PC-12 [6], the outcome was Active. For the same molecule, in data set [7], the “inhibition (INH)” value is “Active”.

Regarding `COc1cc(C2Oc3cc(-c4oc5cc(O)cc(O)c5c(=O)c4O)ccc3OC2CO)ccc1O` (stereo unspecified) [DEHYDROSILYLBIN], the inhibition was 42.2% in data set [5] and 58% in data set [1]. In addition, the values for the 50% inhibitory concentration (IC50) (with Liver [4]; in [10]) were 10.7 µM and 80.3 µM, respectively. In addition, the EC50 came to 118 µM in data set [2] and 30.2 µM in the data set on PC-12 [9]. Moreover, the Activity with PC-12 [8] turned out to be 40%.

As to `COc1ccc(NC(=O)COc2cc(O)c3c(=O)c(O)c(-c4ccc5c(c4)OC(c4ccc(OCC(=O)Nc6ccc(OC)cc6)c(OC)c4)C(CO)O5)oc3c2)cc1` (racemic), in [3], the result was inactive. Besides, the IC50 in the data set on Liver [4] worked out at 37 µM. Besides, the outcome with PC-12 [6] was Active. Moreover, in [7], the “inhibition (INH)” value is on record as “Active”.

In turn, `Oc1ncnc2[nH]ncc12` [ALLOPURINOL] returned an IC50 in [10] of 21.2 µM.

Turning to `C=CCOc1cc(O)c2c(=O)c(O)c(-c3ccc4c(c3)OC(c3ccc(OCC=C)c(OC)c3)C(CO)O4)oc2c1` (racemic), the outcome in data set [3] was inactive. Moreover, in the data set with Liver [4], the IC50 is 22.6 µM. Moreover, in data set [1], the inhibition came out at 72.5%. Besides, the EC50 in data set [2] turned out to be 129 µM; with PC-12 [9] it was 20.5 µM. Moreover, the Activity with PC-12 [8] is given as 40%.

On to `COc1cc(C2Oc3cc(-c4oc5cc(OCC(=O)Nc6ccc(Cl)cc6Cl)cc(O)c5c(=O)c4O)ccc3OC2CO)ccc1OCC(=O)Nc1ccc(Cl)cc1Cl` (racemic), for which, in data set [3], the result was inactive. In addition, the concentration for half-maximal inhibition (IC50) in the data set with Liver [4] turned out to be 20.7 µM. Also, the result in the data set with PC-12 [6] was Active. Moreover, in data set [7], the “inhibition (INH)” value is “Active”.

Turning to `C=CCCOc1cc(O)c2c(=O)c(OCCC=C)c(-c3ccc4c(c3)OC(c3ccc(OCCC=C)c(OC)c3)C(CO)O4)oc2c1` (racemic), the result in data set [3] was inactive. Also, the IC50 with Liver [4] was determined as 67.5 µM. The Activity in the data set with PC-12 [8] was 40%. The molecule further returned an EC50 in the data set with PC-12 [9] of 79.4 µM.

On to `COc1cc(C2Oc3cc(-c4oc5cc(OCC(=O)Nc6ccc(Cl)cc6)cc(O)c5c(=O)c4O)ccc3OC2CO)ccc1OCC(=O)Nc1ccc(Cl)cc1` (racemic), for which, in [3], the outcome was inactive. For the same molecule, the IC50 in the data set on Liver [4] came out at 153 µM. Besides, the result in the data set on PC-12 [6] was Active. In addition, in data set [7], the “inhibition (INH)” value is recorded as “Active”.
